Laboratory results published in the supplement of paper PMC11451515.

Legend:
Details in all cases: 48 h
NOMO1 [1] = test: cell viability relative to DMSO control; higher = less cytotoxic
In short: (§1)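 In 1536-well plates, 5 μl of leukemia cells were seeded per well: 500 cells/well for NOMO1 or SEM and 1000 cells/well for P12-Ichikawa. Each line had first been adapted for at least four passages in each medium. Library compounds in DMSO were pin-dosed at 11 threefold concentrations between 47 μM and 0.79 nM, and CellTiter-Glo One luminescence was read after 48 h at 37°C. Viability is a per-plate percentage relative to DMSO wells, with cell-free wells as background.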

P12-Ichikawa [2] = test: as above
In short: as §1

SEM cells [3] = test: as above
In short: as §1

NOMO1 [4] = test: AUC of viability dose-response curve (% viability x log10 dose units); higher = less sensitive
In short: (§2)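 Seeding of medium-adapted leukemia cells was at 500 or 1000 cells/well in 1536-well plates, followed by 48 h at 37°C with library compounds in DMSO at 11 threefold doses from 47 μM to 0.79 nM. CellTiter-Glo One luminescence was normalised per plate to DMSO and cell-free wells and fitted as a four-parameter log-logistic function of log10 dose. Area under the curve was integrated by trapezoidal rule, with curves exceeding full viability scaled and curves failing quality control removed.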

P12-Ichikawa [5] = test: as above
In short: as §2

SEM cells [6] = test: as above
In short: as §2

C\C1=C\N([C@H]2C[C@H](N=[N+]=[N-])[C@@H](CO)O2)C(=O)NC1=O
cell viability [%]
Details | NOMO1 [1] | P12-Ichikawa [2] | SEM cells [3]
HPLM + 10% dialyzed FBS, 0.000781 µM | 94.1 | 101 | 65.4
HPLM + 10% dialyzed FBS, 0.00234 µM | 109 | 108 | 68.8
HPLM + 10% dialyzed FBS, 0.00702 µM | 99.4 | 107 | 82.4
HPLM + 10% dialyzed FBS, 0.0211 µM | 105 | 120 | 71
HPLM + 10% dialyzed FBS, 0.0632 µM | 111 | 111 | 80.8
HPLM + 10% dialyzed FBS, 0.19 µM | 120 | 111 | 93.1
HPLM + 10% dialyzed FBS, 0.569 µM | 109 | 111 | 95.4
HPLM + 10% dialyzed FBS, 1.71 µM | 61 | 120 | 86.5
HPLM + 10% dialyzed FBS, 5.12 µM | 29.7 | 115 | 81.6
HPLM + 10% dialyzed FBS, 15.4 µM | 19.8 | 23.2 | 84.3
HPLM + 10% dialyzed FBS, 46.1 µM | 25.7 | 15.1 | 79.3
RPMI 5 mM glucose + 10% FBS, 0.000781 µM | 88.2 | 99.8 | 82.5
RPMI 5 mM glucose + 10% FBS, 0.00234 µM | 109 | 120 | 85.6
RPMI 5 mM glucose + 10% FBS, 0.00702 µM | 105 | 122 | 88.9
RPMI 5 mM glucose + 10% FBS, 0.0211 µM | 106 | 111 | 89.3
RPMI 5 mM glucose + 10% FBS, 0.0632 µM | 96.7 | 116 | 84.8
RPMI 5 mM glucose + 10% FBS, 0.19 µM | 97.5 | 116 | 101
RPMI 5 mM glucose + 10% FBS, 0.569 µM | 106 | 121 | 88.4
RPMI 5 mM glucose + 10% FBS, 1.71 µM | 29.3 | 121 | 104
RPMI 5 mM glucose + 10% FBS, 5.12 µM | 15.1 | 119 | 92.2
RPMI 5 mM glucose + 10% FBS, 15.4 µM | 14.3 | 34.4 | 101
RPMI 5 mM glucose + 10% FBS, 46.1 µM | 10.2 | 25.3 | 82.2
RPMI 5 mM glucose + 10% dialyzed FBS, 0.000781 µM | 107 | 97.1 | 72.2
RPMI 5 mM glucose + 10% dialyzed FBS, 0.00234 µM | 110 | 109 | 83.9
RPMI 5 mM glucose + 10% dialyzed FBS, 0.00702 µM | 109 | 112 | 96
RPMI 5 mM glucose + 10% dialyzed FBS, 0.0211 µM | 110 | 101 | 98.4
RPMI 5 mM glucose + 10% dialyzed FBS, 0.0632 µM | 105 | 113 | 117
RPMI 5 mM glucose + 10% dialyzed FBS, 0.19 µM | 103 | 111 | 92
RPMI 5 mM glucose + 10% dialyzed FBS, 0.569 µM | 113 | 116 | 105
RPMI 5 mM glucose + 10% dialyzed FBS, 1.71 µM | 68.6 | 110 | 71.8
RPMI 5 mM glucose + 10% dialyzed FBS, 5.12 µM | 20.8 | 103 | 93.2
RPMI 5 mM glucose + 10% dialyzed FBS, 15.4 µM | 19.6 | 79.9 | 85.7
RPMI 5 mM glucose + 10% dialyzed FBS, 46.1 µM | 18.9 | 62 | 62.4

AUC of viability dose-response curve
Details | NOMO1 [4] | P12-Ichikawa [5] | SEM cells [6]
HPLM + 10% dialyzed FBS | 365 | 419 | 388
RPMI 5 mM glucose + 10% FBS | 339 | 425 | 434
RPMI 5 mM glucose + 10% dialyzed FBS | 362 | 452 | 425

Cc1ccc(O)c(C(CCN(C(C)C)C(C)C)c2ccccc2)c1.Cl (configuration not stated)
P12-Ichikawa [2], HPLM + 10% dialyzed FBS
Details | cell viability [%]
0.000781 µM | 121
0.00234 µM | 122
0.00702 µM | 131
0.0211 µM | 137
0.0632 µM | 140
0.19 µM | 128
0.569 µM | 129
1.71 µM | 134
5.12 µM | 134
15.4 µM | 136
46.1 µM | 127

AUC of viability dose-response curve
Details | NOMO1 [4] | P12-Ichikawa [5] | SEM cells [6]
HPLM + 10% dialyzed FBS | 410 | 465 | 461
RPMI 5 mM glucose + 10% FBS | 430 | 470 | 477
RPMI 5 mM glucose + 10% dialyzed FBS | 435 | 475 | 463

C=C1/C(=C\C=C2/CCC[C@]3(C)[C@@H]([C@H](C)/C=C/[C@H](C)C(C)C)CC[C@@H]23)C[C@@H](O)C[C@@H]1O
AUC of viability dose-response curve
Details | NOMO1 [4] | P12-Ichikawa [5] | SEM cells [6]
HPLM + 10% dialyzed FBS | 398 | 399 | 446
RPMI 5 mM glucose + 10% FBS | 423 | 404 | 438
RPMI 5 mM glucose + 10% dialyzed FBS | 416 | 408 | 450

CCOC(=O)[C@H](CCc1ccccc1)N[C@H]1CCc2ccccc2N(CC(=O)O)C1=O
AUC of viability dose-response curve
Details | NOMO1 [4] | P12-Ichikawa [5] | SEM cells [6]
HPLM + 10% dialyzed FBS | 429 | 463 | 458
RPMI 5 mM glucose + 10% FBS | 450 | 458 | 454
RPMI 5 mM glucose + 10% dialyzed FBS | 448 | 457 | 459

O=C(NC[C@H](O)CN1CCc2ccccc2C1)c1cc(NC2COC2)ncn1
cell viability [%]
Details | NOMO1 [1] | P12-Ichikawa [2] | SEM cells [3]
HPLM + 10% dialyzed FBS, 0.000781 µM | 93.5 | 84.8 | 58.8
HPLM + 10% dialyzed FBS, 0.00234 µM | 117 | 87.8 | 84.9
HPLM + 10% dialyzed FBS, 0.00702 µM | 173 | 87.5 | 91.5
HPLM + 10% dialyzed FBS, 0.0211 µM | 29.5 | 86.8 | 81.6
HPLM + 10% dialyzed FBS, 0.0632 µM | 64.5 | 85.4 | 86.3
HPLM + 10% dialyzed FBS, 0.19 µM | 99.2 | 86.1 | 75
HPLM + 10% dialyzed FBS, 0.569 µM | 101 | 83.6 | 68.5
HPLM + 10% dialyzed FBS, 1.71 µM | 72.7 | 78.9 | 71.6
HPLM + 10% dialyzed FBS, 5.12 µM | 70.7 | 80 | 78.4
HPLM + 10% dialyzed FBS, 15.4 µM | 56.1 | 80.6 | 68.6
HPLM + 10% dialyzed FBS, 46.1 µM | 38.6 | 71.1 | 26.9
RPMI 5 mM glucose + 10% FBS, 0.000781 µM | 92.9 | 74 | 71.9
RPMI 5 mM glucose + 10% FBS, 0.00234 µM | 80.4 | 83.2 | 145
RPMI 5 mM glucose + 10% FBS, 0.00702 µM | 88.2 | 80 | 124
RPMI 5 mM glucose + 10% FBS, 0.0211 µM | 99.3 | 85.9 | 141
RPMI 5 mM glucose + 10% FBS, 0.0632 µM | 83 | 86.2 | 132
RPMI 5 mM glucose + 10% FBS, 0.19 µM | 89.9 | 84.8 | 121
RPMI 5 mM glucose + 10% FBS, 0.569 µM | 94.4 | 77.3 | 108
RPMI 5 mM glucose + 10% FBS, 1.71 µM | 92.6 | 74 | 108
RPMI 5 mM glucose + 10% FBS, 5.12 µM | 84.3 | 70.4 | 114
RPMI 5 mM glucose + 10% FBS, 15.4 µM | 75.1 | 76.4 | 88.5
RPMI 5 mM glucose + 10% FBS, 46.1 µM | 74.2 | 59.3 | 47.2
RPMI 5 mM glucose + 10% dialyzed FBS, 0.000781 µM | 83.5 | 80.6 | 59
RPMI 5 mM glucose + 10% dialyzed FBS, 0.00234 µM | 92.8 | 88.6 | 107
RPMI 5 mM glucose + 10% dialyzed FBS, 0.00702 µM | 93.5 | 84.6 | 100
RPMI 5 mM glucose + 10% dialyzed FBS, 0.0211 µM | 101 | 87.9 | 91.1
RPMI 5 mM glucose + 10% dialyzed FBS, 0.0632 µM | 84.7 | 88.1 | 73.8
RPMI 5 mM glucose + 10% dialyzed FBS, 0.19 µM | 91.8 | 86.9 | 81
RPMI 5 mM glucose + 10% dialyzed FBS, 0.569 µM | 68.4 | 77.6 | 80.5
RPMI 5 mM glucose + 10% dialyzed FBS, 1.71 µM | 66.4 | 79.1 | 75.2
RPMI 5 mM glucose + 10% dialyzed FBS, 5.12 µM | 81.4 | 78.7 | 84.2
RPMI 5 mM glucose + 10% dialyzed FBS, 15.4 µM | 67.3 | 72 | 65.1
RPMI 5 mM glucose + 10% dialyzed FBS, 46.1 µM | 63.3 | 66.3 | 25.2

P12-Ichikawa [5]
Details | AUC of viability dose-response curve
HPLM + 10% dialyzed FBS | 397
RPMI 5 mM glucose + 10% FBS | 372
RPMI 5 mM glucose + 10% dialyzed FBS | 388

Cc1cc(C[S+](=O)([O-])c2ccccc2)cc(OCc2ccc(CN3CCC[C@@H]3CO)cc2)c1
AUC of viability dose-response curve
Details | NOMO1 [4] | P12-Ichikawa [5] | SEM cells [6]
HPLM + 10% dialyzed FBS | 298 | 305 | 291
RPMI 5 mM glucose + 10% FBS | 321 | 315 | 268
RPMI 5 mM glucose + 10% dialyzed FBS | 323 | 321 | 285

C[N]1C2=C(SC(=C2)[S+](C)[O-])C\3=C1C(=O)N(CC4=CC(=CC=C4)N)\N=C3 (configuration not stated)
AUC of viability dose-response curve
Details | HPLM + 10% dialyzed FBS | RPMI 5 mM glucose + 10% FBS | RPMI 5 mM glucose + 10% dialyzed FBS
P12-Ichikawa [5] | 414 | 404 | 392
SEM cells [6] | 426 | 426 | 403

COc1cc(C(=O)N2CCC(N3CCN(C)CC3)CC2)ccc1Nc1ncc2c(n1)N(C)c1ccccc1C(=O)N2C
AUC of viability dose-response curve
Details | NOMO1 [4] | P12-Ichikawa [5] | SEM cells [6]
HPLM + 10% dialyzed FBS | 419 | 428 | 376
RPMI 5 mM glucose + 10% FBS | 435 | 435 | 374
RPMI 5 mM glucose + 10% dialyzed FBS | 412 | 433 | 363
